Where “and” joins values, the source holds several entries; their conditions need not be identical. Identical values can stand only once. Like-named read-outs stand apart in the source and are kept apart here.
How the values were obtained:
[1] = biological target: tau, AD FC brain homogenates (Homo sapiens, UniProt P10636); assay: ^3H-PI2620 competitive binding assay in AD frontal cortex brain homogenates; conditions: for proportion of HA binding sites / proportion of SHA binding sites: vs 0.6 nM ^3H-PI2620; for IC50: vs 0.6 nM ^3H-PI2620, 2-site competition model
Protocol: (§1) Frozen human brain tissue from eleven AD, five CBD, four PSP and eight control patients was provided by the Netherlands Brain Bank (Amsterdam, Netherlands). Frozen human brain tissue from PSP case number 26 was provided by Professor Bernadino Ghetti, the Neuropathology of Dementia Laboratory, Indiana University School of Medicine (Indianapolis, IN, USA) (see Table 1 for demographic data). Brain homogenates were prepared by homogenising the brain tissue in phosphate buffer saline (PBS; pH 7.4) containing 0.1% BSA (250 mg tissue/mL) and protease/phosphatase inhibitors (10 μL/mL); aliquots were stored at −80 °C until used in the binding experiments.
Competitive binding assays on four AD FC brain homogenates [two early-onset (EO) AD and two late-onset (LO) AD; 0.5 mg tissue] were performed using 0.6 nM of ^3H-PI2620 and increasing concentrations (1 × 10^−18 M to 1 × 10^−6 M) of unlabelled PI2620, unlabelled MK6240 and unlabelled RO948 for 2 h at RT. The binding assay was accomplished as described above. The half-maximal inhibitory concentration (IC50) was measured using the 2-site competition model in GraphPad Prism 9 software.

[2] = system: tau, AD brain homogenates; conditions: cited from earlier work; for high-affinity (HA) binding site: AD brain homogenates
[3] = biological target: tau, CBD FC homogenates (Homo sapiens, UniProt P10636); assay: ^3H-PI2620 competitive binding assay in CBD frontal cortex brain homogenates
Protocol: as §1
(§2) Competitive binding assays were also carried out under the same conditions, on three PSP FC homogenates and three CBD FC homogenates using 0.6 nM and 1 nM of ^3H-PI2620, respectively, in the presence of increasing concentrations of unlabelled PI2620 (1 × 10^−18 M to 1 × 10^−6 M). The 2-site competition model in GraphPad Prism 9 software was used to plot the AD, CBD, and PSP data.

[4] = biological target: tau, PSP FC homogenates (Homo sapiens, UniProt P10636); assay: ^3H-PI2620 competitive binding assay in PSP frontal cortex brain homogenates; conditions: vs 0.6 nM ^3H-PI2620, only one binding site
Protocol: as §1, §2

[5] = system: tau, post-mortem PSP brain tissue; conditions: cited from earlier work
[6] = read-out: IC50(1), super-high affinity (SHA) site
[7] = read-out: IC50(2), high affinity (HA) site

tau, AD FC brain homogenates, sequence (P10636 623-708 limits assumed): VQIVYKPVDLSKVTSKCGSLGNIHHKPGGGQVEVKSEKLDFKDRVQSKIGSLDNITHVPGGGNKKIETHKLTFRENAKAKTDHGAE
tau, CBD FC homogenates, sequence (P10636 561-697 limits assumed): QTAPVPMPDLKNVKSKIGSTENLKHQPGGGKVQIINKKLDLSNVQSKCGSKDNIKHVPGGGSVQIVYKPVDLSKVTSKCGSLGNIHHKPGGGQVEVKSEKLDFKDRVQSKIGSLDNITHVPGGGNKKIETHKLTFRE
tau, PSP FC homogenates, sequence (P10636 561-698 limits assumed): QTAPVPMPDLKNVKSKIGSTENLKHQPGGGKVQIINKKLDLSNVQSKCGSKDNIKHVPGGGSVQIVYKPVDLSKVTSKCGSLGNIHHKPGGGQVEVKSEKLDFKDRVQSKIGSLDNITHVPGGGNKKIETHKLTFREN

Compound: Nc1c(F)ccc2cnc(-n3ccc4ccncc43)cc12 [MK6240]
- proportion of HA binding sites [1]: > 70% and 76%
- proportion of SHA binding sites [1]: > 20% and 24%
- IC50 [1, 6]: 0.0027 nM
- IC50 [1, 7]: 4.5 nM
- high-affinity (HA) binding site [2]: 0.15 to 0.32 nM
- HA site ([2]; AD hippocampus, ^3H-MK6240): 12 nM
- super-high affinity (SHA) site ([2]; AD hippocampus, ^3H-MK6240): 1 pM
- proportion of HA site ([2]; AD hippocampus): 42%
- proportion of SHA site ([2]; AD hippocampus): 58%

Compound: Fc1cc(-c2ccc3c(n2)[nH]c2ccncc23)ccn1 [PI2620]
- proportion of HA binding sites [1]: > 70% and 77%
- proportion of SHA binding sites [1]: > 20% and 23%
- IC50 [1, 6]: 0.0081 nM
- IC50 [1, 7]: 4.9 nM
- proportion of HA binding sites ([3]; vs 1 nM ^3H-PI2620): 54%
- proportion of SHA binding sites ([3]; vs 1 nM ^3H-PI2620): 46%
- IC50 ([3]; vs 1 nM ^3H-PI2620, read-out: IC50(1), SHA site): 0.0056 nM
- IC50 ([3]; vs 1 nM ^3H-PI2620, read-out: IC50(2), HA site): 7.7 nM
- IC50 [4]: 2.5 nM
- high-affinity (HA) binding site [2]: 8.5 nM

Compound: Fc1ccc(-c2ccc3c(n2)[nH]c2cnccc23)cn1 [RO948]
- proportion of HA binding sites [1]: > 70% and 79%
- proportion of SHA binding sites [1]: > 20% and 21%
- IC50 [1, 6]: 0.0058 nM
- IC50 [1, 7]: 6.8 nM
- high-affinity (HA) binding site [2]: 18 nM

Compound: Fc1ccc(-c2ccc3c(c2)[nH]c2ccncc23)cn1 [^18F-AV-1451]
- in vitro binding using autoradiography [5]: no in vitro binding

Source: article PMC10005967, “Discriminative binding of tau PET tracers PI2620, MK6240 and RO948 in Alzheimer’s disease, corticobasal degeneration and progressive supranuclear palsy brains” (Molecular Psychiatry, 2022)
